Data on 37 molecules can be found in PubChem BioAssay AID1159536 (DiRusso Lab, Biochemistry Department, University of Nebraska, 2015).

Results filed as inconclusive are left out. Calls of active or inactive are those of the source. No rule for the calls is given here.

The subject of the first experiment is Chlamydomonas reinhardtii, Nile Red lipid fluorescence, 72 h. Description: algal triacylglycerol accumulation inducers, dose response, qHTS, Chlamydomonas reinhardtii (AID 1159536).
Conditions: not given
For orientation: qHTS replaces the single test concentration by a dilution series.
Regarding `CC(C)(C)C1CCC(NCc2ccncc2)CC1` (configuration not stated), the EC50 was 3.53 µM.

With `c1ccc(CN2CCN(C3CCCCC3)CC2)cc1`, the EC50 was 9.9 µM.

As for `C=CCN1C(=O)C(=O)c2cc(Br)ccc21`, the EC50 is 5.89 µM.

Regarding `CC(C)(C)c1csc(NC(=O)c2ccc(N3CCOCC3)c([N+](=O)[O-])c2)n1`, the EC50 was 2.66 µM.

As for `COc1ccccc1N1CCN(C2CCN(Cc3cccc(F)c3)CC2)CC1`, the concentration giving a half-maximal response (EC50) is 10.6 µM.

As to `CN(CC(O)COc1ccc(Br)cc1)C1CCCCC1` (configuration not stated), the EC50 is 6.83 µM.

Take `Cc1ccc(CN2CCC(C(=O)N3CCN(c4ccccc4F)CC3)CC2)o1`: the EC50 is 7.9 µM (inactive).

On to `Cc1cc(C)c(NC(=O)COc2ccccc2[N+](=O)[O-])c(C)c1`, for which the EC50 is 3.13 µM (inactive).

In the case of `OCCN1CCN(C2C3CC4CC(C3)CC2C4)CC1` (configuration not stated), the concentration giving a half-maximal response (EC50) was 4.25 µM.

`Clc1cc(Br)ccc1OCCCCN1CCOCC1`: the EC50 is 1.31 µM.

With `Fc1ccc(CN2CCN(c3cccc(Cl)c3)CC2)cc1`, the half-maximal effective concentration (EC50) is 1.29 µM.

As to `O=C(c1ccccc1)c1ccc(OCCCCn2ccnc2)cc1`, the EC50 was 1.33 µM (inactive).

As to `CCN(CC)CC#Cc1ccc(C#CCN(CC)CC)cc1`, the concentration giving a half-maximal response (EC50) was 4.15 µM.

As for `COc1ccc(CN2CCN(c3ncnc4sc5c(c34)CCCC5)CC2)cc1`, the concentration for a half-maximal effect (EC50) was 4.83 µM.

Test system in a further experiment: not listed separately
The experiment is described as above. The conditions noted are these: Chlamydomonas reinhardtii, Nile Red lipid fluorescence, 72 h; at 30 µM (top of the series).
`Cc1ccc(Cn2cnc3c(cnn3-c3ccccc3)c2=O)c(C)c1`: the fold change vs untreated, higher = more lipid is 3 (inactive).

For the molecule `CC(=O)Nc1ccc(OCC(=O)Nc2cc(Cl)cc(Cl)c2)cc1`, the fold change vs untreated, higher = more lipid was 2.48 (inactive).

As to `O=C(Nc1ccccc1C(=O)NCc1ccccc1)c1ccc([N+](=O)[O-])cc1`, the fold change vs untreated, higher = more lipid is 2.49 (inactive).

Regarding `Cc1ccc(OCCCCN2CCCC2)c(C)c1`, the fold change vs untreated, higher = more lipid is 6.28.

In the case of `COc1cc(NC(=O)C(Cl)Cl)c(OC)cc1Cl`, the fold change vs untreated, higher = more lipid was 1.42 (inactive).

As for `CCC1CCCCN1C(=O)c1ccc(Cl)cc1[N+](=O)[O-]` (configuration not stated), the fold change vs untreated, higher = more lipid was 1.87 (inactive).

Turning to `Cc1sc(NC(=O)c2cccs2)c(C(=O)O)c1C`, the fold change vs untreated, higher = more lipid is 1.38 (inactive).

`Cc1cc(Br)ccc1OCC(=O)NCc1ccc2c(c1)OCO2`: the fold change vs untreated, higher = more lipid is 1.4 (inactive).

With `CCN1CCN(C2CCC(C(C)(C)C)CC2)CC1` (configuration not stated), the fold change vs untreated, higher = more lipid is 2.66 (inactive).

As to `Cc1c(N/C=C/C(=O)c2cccs2)c(=O)n(-c2ccccc2)n1C`, the fold change vs untreated, higher = more lipid was 1.42 (inactive).

Turning to `O=C(O)C1CCN(C(=O)c2ccc(F)cc2)CC1`, the fold change vs untreated, higher = more lipid is 1.24 (inactive).

For the molecule `CC(C)(C)c1ccc(OCCCCN2CCOCC2)cc1`, the fold change vs untreated, higher = more lipid is 3.88.

Turning to `C=CCNC(=O)C(C)N(c1ccc(OCC)cc1)S(C)(=O)=O` (configuration not stated), the fold change vs untreated, higher = more lipid is 1.69 (inactive).

With `COc1ccccc1Cn1c(C(C)O)nc2ccccc21` (configuration not stated), the fold change vs untreated, higher = more lipid is 0.95 (inactive).

Turning to `Cc1c(C(=O)Nc2ccccc2C(=O)NCc2ccccc2)cccc1[N+](=O)[O-]`, the fold change vs untreated, higher = more lipid was 2.77 (inactive).

For the molecule `O=C(NC1CCN(Cc2ccccc2)CC1)c1ccc(Cl)cc1Cl`, the fold change vs untreated, higher = more lipid is 12.2.

Regarding `Cc1cc(Cl)c(OCCn2ccnc2)c(Br)c1`, the fold change vs untreated, higher = more lipid is 5.38.

`COc1ccc(S(=O)(=O)N(CC(=O)NC(C)C)c2cc(C)cc(C)c2)cc1OC`: the fold change vs untreated, higher = more lipid is 1.07 (inactive).

Take `Cc1ccc(N2CCN(CCc3ccccc3)CC2)cc1`: the fold change vs untreated, higher = more lipid was 8.09.

For the molecule `Cc1ccc(CN2CCC(C(=O)NCc3ccccc3Cl)CC2)cc1`, the fold change vs untreated, higher = more lipid is 15.2.

For the molecule `COc1cccc(CN2CCN(C(=O)c3cc(OC)c(OC)c(OC)c3)CC2)c1OC`, the fold change vs untreated, higher = more lipid is 1.75 (inactive).

Turning to `COc1cc(-c2ccc(NC(=O)c3ccco3)c(OC)c2)ccc1NC(=O)c1ccco1`, the fold change vs untreated, higher = more lipid was 1.4 (inactive).

For the molecule `Fc1ccc(N2CCN(CCc3ccccc3)CC2)cc1`, the fold change vs untreated, higher = more lipid is 9.42.

For orientation: EC50 means the concentration needed to bring the measured effect to its halfway point.
